Assay results from ChEMBL document CHEMBL1140018, “Synthesis and structure-activity relationship of imidazo(1,2-a)thieno(3,2-e)pyrazines as IKK-beta inhibitors” (Bioorg Med Chem Lett, 2007).
In brackets after ≈: the same amount, converted by molar mass. Activity calls are given as the source filed them. The rule behind the calls is not given here.

How the values were obtained:
[1] = target: T1, Inhibitor of nuclear factor kappa-B kinase subunit alpha (Homo sapiens, UniProt O15111)
T1 sequence (O15111 whole entry): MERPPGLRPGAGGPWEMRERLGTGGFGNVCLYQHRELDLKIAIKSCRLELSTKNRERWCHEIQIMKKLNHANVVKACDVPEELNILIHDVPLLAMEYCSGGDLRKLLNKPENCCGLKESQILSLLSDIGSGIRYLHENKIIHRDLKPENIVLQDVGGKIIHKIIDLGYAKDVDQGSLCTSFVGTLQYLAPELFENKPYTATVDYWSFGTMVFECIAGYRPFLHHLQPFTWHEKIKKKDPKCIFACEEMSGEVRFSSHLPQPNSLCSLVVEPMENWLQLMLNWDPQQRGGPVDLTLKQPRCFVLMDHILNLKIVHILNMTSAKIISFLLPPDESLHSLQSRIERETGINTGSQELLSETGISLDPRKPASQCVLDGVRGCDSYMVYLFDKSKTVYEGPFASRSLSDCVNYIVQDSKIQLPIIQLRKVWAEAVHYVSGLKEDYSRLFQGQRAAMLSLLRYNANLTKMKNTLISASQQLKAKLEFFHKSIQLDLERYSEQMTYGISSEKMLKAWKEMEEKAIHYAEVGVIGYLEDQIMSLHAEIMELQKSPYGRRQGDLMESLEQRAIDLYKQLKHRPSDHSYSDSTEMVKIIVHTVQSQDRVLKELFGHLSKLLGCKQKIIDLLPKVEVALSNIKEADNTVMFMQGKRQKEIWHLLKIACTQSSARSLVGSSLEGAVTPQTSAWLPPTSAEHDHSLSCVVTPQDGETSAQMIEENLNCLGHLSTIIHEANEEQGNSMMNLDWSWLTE

[2] = Cytotoxicity against Jurkat cells by Alamar blue assay; conditions: human, Jurkat cells
[3] = AUC(1 to 4 hrs) in mouse at 10 mg/kg, po; assay type: ADME, organism-based; design: time upper 4 hr, time lower 1 hr, dose 10 mg/kg, route oral; conditions: plasma
[4] = tested on: Jurkat; assay: Inhibition of TNF-alpha-induced response in Jurkat cells; conditions: Homo sapiens
[5] = tested on: PBMC; assay: Inhibition of LPS-induced TNFalpha production in PBMC; assay type: functional, cell-based; conditions: Homo sapiens
[6] = target: T2, Inhibitor of nuclear factor kappa-B kinase subunit beta (Homo sapiens, UniProt O14920)
T2 sequence (O14920 whole entry): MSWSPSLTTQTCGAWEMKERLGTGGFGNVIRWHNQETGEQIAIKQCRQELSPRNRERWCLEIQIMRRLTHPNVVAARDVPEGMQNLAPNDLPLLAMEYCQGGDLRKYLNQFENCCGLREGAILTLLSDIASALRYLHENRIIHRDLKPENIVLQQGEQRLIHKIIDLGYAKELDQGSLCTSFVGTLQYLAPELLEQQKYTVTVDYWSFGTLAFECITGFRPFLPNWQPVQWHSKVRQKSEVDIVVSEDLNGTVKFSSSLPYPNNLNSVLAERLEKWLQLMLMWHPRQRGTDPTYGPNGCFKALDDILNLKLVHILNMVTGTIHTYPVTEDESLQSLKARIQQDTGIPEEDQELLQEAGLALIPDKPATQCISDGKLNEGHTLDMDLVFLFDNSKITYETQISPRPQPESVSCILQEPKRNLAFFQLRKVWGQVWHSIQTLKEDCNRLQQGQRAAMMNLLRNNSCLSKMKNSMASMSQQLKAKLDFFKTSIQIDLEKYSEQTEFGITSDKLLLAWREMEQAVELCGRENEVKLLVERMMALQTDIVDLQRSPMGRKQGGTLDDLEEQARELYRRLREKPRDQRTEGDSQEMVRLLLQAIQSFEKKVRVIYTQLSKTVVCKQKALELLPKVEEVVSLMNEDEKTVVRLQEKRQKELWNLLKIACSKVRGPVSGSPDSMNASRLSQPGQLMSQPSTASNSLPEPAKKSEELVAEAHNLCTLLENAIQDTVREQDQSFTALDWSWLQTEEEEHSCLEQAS

[7] = tested on: Liver; assay: Metabolic stability in mouse liver microsomes; assay type: ADME, Microsome
[8] = Tmax in mouse at 10 mg/kg, po; assay type: ADME, organism-based; design: dose 10 mg/kg, route oral; conditions: in vivo
[9] = tested on: Liver microsomes; assay: Metabolic stability in human liver microsomes; assay type: ADME, Microsome
[10] = Cmax in mouse at 10 mg/kg, po; assay type: ADME, organism-based; design: dose 10 mg/kg, route oral; conditions: in vivo
[11] = target: Epidermal growth factor receptor (Homo sapiens) (UniProt P00533); assay: Inhibition of Her1
[12] = target: T3, Tyrosine-protein kinase ITK/TSK (Homo sapiens) (UniProt Q08881); assay: Inhibition of EMT
T3 sequence (whole entry): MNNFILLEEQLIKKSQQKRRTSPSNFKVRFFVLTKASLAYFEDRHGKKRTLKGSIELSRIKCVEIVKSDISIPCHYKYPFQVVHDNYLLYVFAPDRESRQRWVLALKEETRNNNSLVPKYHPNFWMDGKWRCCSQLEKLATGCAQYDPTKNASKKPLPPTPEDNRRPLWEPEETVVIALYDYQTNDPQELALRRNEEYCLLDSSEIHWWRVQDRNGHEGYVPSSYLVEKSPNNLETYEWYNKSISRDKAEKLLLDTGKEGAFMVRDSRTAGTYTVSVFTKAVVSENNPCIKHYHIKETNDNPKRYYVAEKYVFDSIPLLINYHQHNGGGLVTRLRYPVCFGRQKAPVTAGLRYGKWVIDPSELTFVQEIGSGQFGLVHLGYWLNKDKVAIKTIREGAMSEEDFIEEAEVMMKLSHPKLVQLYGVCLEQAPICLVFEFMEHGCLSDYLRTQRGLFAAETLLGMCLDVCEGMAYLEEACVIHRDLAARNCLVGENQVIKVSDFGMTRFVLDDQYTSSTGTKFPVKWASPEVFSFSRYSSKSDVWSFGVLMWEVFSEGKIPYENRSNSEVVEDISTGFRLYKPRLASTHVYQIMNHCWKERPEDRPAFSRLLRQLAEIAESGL

[13] = organism: Homo sapiens; assay: Inhibition of VEGF
[14] = target: Receptor tyrosine-protein kinase erbB-2 (Homo sapiens) (UniProt P04626); assay: Inhibition of Her2
[15] = target: T4, Inhibitor of nuclear factor kappa-B kinase subunit epsilon (Homo sapiens) (UniProt Q14164); assay: Inhibition of IKKepsilon
T4 sequence (whole entry): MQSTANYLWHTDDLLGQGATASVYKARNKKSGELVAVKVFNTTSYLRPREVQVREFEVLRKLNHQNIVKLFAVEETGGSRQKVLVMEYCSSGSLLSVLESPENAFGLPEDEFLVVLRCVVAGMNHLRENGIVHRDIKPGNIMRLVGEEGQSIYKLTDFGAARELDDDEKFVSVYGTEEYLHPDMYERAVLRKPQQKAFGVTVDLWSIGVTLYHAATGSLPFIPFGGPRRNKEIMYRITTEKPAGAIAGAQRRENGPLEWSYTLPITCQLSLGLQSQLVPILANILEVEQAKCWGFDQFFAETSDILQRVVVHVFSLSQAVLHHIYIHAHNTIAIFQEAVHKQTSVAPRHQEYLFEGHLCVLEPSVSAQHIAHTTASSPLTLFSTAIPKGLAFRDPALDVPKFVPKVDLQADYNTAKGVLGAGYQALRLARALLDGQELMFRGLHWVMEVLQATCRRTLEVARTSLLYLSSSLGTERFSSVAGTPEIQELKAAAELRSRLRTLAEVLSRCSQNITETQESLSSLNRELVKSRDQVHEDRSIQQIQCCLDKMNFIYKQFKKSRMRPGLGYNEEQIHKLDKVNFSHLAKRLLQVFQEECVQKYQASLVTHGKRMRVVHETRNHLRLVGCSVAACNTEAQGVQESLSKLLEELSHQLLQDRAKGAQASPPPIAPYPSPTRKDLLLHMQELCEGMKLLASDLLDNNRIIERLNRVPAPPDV

[16] = organism: Homo sapiens; assay: Inhibition of PKA
[17] = target: MAP kinase p38 (Homo sapiens) (UniProt O15264+Q15759+Q16539+P53778); assay: Inhibition of p38; assay type: protein assay
[18] = target: Tyrosine-protein kinase Lck (Homo sapiens) (UniProt P06239); assay: Inhibition of LCK
[19] = target: Insulin-like growth factor 1 receptor (Homo sapiens) (UniProt P08069); assay: Inhibition of IGF1R
[20] = Aqueous solubility in sodium phosphate buffer at pH 6.5; assay type: physicochemical
[21] = Drug level in LPS-challenged mouse serum at 30 mg/kg after 2.5 hrs; assay type: ADME, organism-based; design: dose 30 mg/kg; conditions: read-out: Activity
[22] = tested on: Mus musculus; assay: Reduction of LPS-induced TNFalpha release in mouse at 30 mg/kg administered 4 hrs before LPS challenge; assay type: functional
[23] = tested on: Mus musculus; assay: Reduction of LPS-induced TNFalpha release in mouse at 30 mg/kg administered 1 hr before LPS challenge; assay type: functional; design: scale not given: the % may be the effect or the level left
[24] = Drug level in LPS-challenged mouse serum at 30 mg/kg after 5.5 hrs; assay type: ADME, organism-based; design: dose 30 mg/kg; conditions: read-out: Activity

Chain of Receptor tyrosine-protein kinase erbB-2 (Homo sapiens) (P04626 whole entry): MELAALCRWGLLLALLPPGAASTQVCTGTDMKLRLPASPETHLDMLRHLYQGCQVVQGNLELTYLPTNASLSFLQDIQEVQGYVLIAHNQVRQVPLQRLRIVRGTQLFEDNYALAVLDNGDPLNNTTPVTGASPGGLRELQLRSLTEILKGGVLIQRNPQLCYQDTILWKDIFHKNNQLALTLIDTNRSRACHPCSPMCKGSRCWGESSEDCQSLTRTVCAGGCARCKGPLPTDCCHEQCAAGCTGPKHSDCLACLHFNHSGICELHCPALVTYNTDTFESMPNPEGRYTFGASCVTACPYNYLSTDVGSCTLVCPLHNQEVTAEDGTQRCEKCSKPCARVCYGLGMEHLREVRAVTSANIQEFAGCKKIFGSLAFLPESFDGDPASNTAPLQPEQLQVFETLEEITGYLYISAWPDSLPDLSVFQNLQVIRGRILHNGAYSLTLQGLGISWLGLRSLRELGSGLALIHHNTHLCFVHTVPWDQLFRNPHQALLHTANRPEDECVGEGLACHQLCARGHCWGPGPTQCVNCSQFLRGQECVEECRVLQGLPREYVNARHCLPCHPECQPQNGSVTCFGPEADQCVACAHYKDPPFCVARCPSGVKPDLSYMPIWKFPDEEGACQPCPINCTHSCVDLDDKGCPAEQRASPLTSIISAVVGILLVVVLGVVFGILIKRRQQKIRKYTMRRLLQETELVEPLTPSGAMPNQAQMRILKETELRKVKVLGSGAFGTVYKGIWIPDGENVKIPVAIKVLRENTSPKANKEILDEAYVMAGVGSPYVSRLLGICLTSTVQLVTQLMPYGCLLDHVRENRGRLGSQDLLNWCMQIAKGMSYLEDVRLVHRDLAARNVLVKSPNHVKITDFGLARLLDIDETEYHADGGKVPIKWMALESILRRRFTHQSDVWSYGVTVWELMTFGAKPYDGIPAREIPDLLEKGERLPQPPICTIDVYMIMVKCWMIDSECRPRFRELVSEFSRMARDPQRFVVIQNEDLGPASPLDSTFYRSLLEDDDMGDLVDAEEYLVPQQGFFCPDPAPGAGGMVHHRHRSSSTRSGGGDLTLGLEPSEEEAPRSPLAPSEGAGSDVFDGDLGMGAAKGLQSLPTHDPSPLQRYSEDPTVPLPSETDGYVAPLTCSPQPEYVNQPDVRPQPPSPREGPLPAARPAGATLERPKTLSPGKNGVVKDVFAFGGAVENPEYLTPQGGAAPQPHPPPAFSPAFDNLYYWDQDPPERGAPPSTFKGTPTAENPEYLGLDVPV
Chain of Tyrosine-protein kinase Lck (Homo sapiens) (P06239 2-509 limits assumed): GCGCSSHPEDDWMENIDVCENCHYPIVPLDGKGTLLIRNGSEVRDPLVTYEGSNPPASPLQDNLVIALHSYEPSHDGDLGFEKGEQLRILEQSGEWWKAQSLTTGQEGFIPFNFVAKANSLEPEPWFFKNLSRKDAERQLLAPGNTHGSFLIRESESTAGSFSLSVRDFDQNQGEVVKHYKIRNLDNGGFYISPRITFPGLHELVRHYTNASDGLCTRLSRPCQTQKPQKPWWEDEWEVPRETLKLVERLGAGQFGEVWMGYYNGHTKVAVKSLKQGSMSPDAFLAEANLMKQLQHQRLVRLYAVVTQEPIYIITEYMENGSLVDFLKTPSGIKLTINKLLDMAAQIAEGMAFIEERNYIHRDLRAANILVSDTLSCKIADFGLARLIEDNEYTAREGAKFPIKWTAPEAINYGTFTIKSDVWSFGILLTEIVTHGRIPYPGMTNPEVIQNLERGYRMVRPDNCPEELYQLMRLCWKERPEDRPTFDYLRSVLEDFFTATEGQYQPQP
Chain of Insulin-like growth factor 1 receptor (Homo sapiens) (P08069 31-736 limits assumed): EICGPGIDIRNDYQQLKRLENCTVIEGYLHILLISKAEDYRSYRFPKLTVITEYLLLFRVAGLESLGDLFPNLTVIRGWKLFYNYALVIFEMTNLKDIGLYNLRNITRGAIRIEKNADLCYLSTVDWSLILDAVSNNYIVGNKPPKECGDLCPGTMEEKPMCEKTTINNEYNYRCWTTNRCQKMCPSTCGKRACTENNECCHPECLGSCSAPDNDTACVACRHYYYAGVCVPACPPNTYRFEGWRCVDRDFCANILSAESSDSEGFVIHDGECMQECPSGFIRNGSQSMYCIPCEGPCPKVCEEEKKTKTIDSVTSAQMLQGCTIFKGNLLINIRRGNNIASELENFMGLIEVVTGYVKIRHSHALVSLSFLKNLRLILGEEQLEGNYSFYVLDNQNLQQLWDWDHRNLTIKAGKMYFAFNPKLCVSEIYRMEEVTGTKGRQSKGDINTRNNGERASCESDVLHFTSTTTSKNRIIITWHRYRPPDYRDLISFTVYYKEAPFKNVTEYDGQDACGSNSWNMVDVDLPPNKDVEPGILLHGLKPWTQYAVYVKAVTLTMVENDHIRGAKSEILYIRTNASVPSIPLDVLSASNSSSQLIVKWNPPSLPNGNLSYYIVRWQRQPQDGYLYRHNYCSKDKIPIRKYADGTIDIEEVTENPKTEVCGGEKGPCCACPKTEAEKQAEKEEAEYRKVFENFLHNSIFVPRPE
Chain of Insulin-like growth factor 1 receptor (Homo sapiens) (P08069 741-1367 limits assumed): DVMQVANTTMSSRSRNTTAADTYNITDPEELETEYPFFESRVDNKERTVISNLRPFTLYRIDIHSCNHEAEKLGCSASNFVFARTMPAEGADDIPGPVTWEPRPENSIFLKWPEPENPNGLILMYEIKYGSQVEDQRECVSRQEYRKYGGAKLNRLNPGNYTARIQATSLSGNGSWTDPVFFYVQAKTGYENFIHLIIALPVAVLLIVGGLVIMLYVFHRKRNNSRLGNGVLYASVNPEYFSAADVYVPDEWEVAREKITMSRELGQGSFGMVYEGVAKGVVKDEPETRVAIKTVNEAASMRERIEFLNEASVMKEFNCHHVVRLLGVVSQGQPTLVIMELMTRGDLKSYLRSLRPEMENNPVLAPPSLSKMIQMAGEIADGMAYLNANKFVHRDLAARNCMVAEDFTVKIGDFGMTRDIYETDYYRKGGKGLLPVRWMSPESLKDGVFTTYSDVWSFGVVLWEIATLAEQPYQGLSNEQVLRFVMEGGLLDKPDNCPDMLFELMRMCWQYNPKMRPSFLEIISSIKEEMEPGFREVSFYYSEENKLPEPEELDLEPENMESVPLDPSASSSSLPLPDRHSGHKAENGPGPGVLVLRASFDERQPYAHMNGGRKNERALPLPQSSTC
Chain of Epidermal growth factor receptor (Homo sapiens) (P00533 whole entry): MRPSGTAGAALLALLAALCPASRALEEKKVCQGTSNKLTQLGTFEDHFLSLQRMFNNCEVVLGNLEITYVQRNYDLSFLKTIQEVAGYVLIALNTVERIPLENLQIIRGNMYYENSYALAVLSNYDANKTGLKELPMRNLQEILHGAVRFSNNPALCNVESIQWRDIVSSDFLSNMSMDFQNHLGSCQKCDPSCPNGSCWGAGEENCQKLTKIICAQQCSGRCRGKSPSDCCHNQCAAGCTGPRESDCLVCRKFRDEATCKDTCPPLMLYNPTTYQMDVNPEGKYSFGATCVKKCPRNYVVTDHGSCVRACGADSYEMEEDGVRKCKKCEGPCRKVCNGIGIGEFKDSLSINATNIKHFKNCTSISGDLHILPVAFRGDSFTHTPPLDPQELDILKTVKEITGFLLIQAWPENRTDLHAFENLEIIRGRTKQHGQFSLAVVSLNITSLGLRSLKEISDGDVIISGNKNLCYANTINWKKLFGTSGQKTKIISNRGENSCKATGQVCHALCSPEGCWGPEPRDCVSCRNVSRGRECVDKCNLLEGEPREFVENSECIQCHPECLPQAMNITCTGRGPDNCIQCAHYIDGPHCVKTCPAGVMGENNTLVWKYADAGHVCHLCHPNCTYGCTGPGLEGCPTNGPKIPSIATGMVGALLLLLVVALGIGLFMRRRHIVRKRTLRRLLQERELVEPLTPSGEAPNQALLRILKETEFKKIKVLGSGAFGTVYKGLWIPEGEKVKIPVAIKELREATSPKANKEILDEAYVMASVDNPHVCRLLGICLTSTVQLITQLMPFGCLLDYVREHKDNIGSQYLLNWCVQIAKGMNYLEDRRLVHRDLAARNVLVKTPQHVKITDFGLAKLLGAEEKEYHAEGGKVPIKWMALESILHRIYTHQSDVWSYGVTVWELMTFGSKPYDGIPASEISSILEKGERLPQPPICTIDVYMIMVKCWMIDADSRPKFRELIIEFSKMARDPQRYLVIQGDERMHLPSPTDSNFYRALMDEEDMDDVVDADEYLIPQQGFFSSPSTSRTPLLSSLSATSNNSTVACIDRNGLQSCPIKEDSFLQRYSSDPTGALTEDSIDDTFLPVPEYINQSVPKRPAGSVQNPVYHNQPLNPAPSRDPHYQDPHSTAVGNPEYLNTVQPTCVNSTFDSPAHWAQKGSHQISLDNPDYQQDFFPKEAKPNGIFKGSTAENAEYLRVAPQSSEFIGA

Row | Compound | IC50 [1] | AUC(0-t) [3] | EC50 [4] | IC50 [6] | Stability [7] | Tmax [8] | Stability [9] | Cmax [10] | Activity [15] | CC50 [2] | EC50 [5] | other results
1 | CNC(=O)C(N)Cc1cccc(-c2cc3nc(NC)c4ncc(C)n4c3s2)c1 (racemic) | 330 nM | – | 470 nM | 36 nM | – | – | – | – | – | 68000 nM | – | solubility [20]: 42 µg/mL (≈ 106 µM)
2 | CNc1nc2cc(-c3cccc(CN)c3)sc2n2c(C)cnc12 | 220 nM | – | 5880 nM | 8.5 nM | – | – | – | – | inactive | 19000 nM | – | –
3 | Cc1cnc2c(NCCN)nc3cc(-c4ccccc4)sc3n12 | 910 nM | – | > 100000 nM | 22 nM | – | – | – | – | inactive | 77000 nM | – | Activity [11]: inactive; Activity [12]: inactive; Activity [13]: inactive; Activity [14]: inactive; Activity [16]: inactive; Activity [17]: inactive; Activity [18]: inactive; Activity [19]: inactive
4 | CNc1nc2cc(-c3cccc(CNC(N)=O)c3)sc2n2c(C)cnc12 | 260 nM | 0.38 µM·h | 340 nM | 43 nM | 0.221 nmol/mg/min | 30 min | 0.066 nmol/mg/min | 0.15 µM | – | > 100000 nM | 68 nM | –
5 | CCNC(=O)C(N)Cc1cccc(-c2cc3nc(NC)c4ncc(C)n4c3s2)c1 (racemic) | 1010 nM | 9.89 µM·h | 1050 nM | 590 nM | 0.145 nmol/mg/min | 30 min | 0.069 nmol/mg/min | 8.6 µM | – | 71000 nM | 140 nM | solubility [20]: 44 µg/mL (≈ 108 µM)

Now from value to molecule, other results behind:

Row | IC50 [1] | AUC(0-t) [3] | EC50 [4] | IC50 [6] | Stability [7] | Tmax [8] | Stability [9] | Cmax [10] | Activity [15] | Compound | CC50 [2] | EC50 [5] | other results
6 | 680 nM | 0.63 µM·h | 360 nM | 8 nM | 0.13 nmol/mg/min | 30 min | 0.062 nmol/mg/min | 0.29 µM | – | CNc1nc2cc(-c3cccc(CC(N)=O)c3)sc2n2c(C)cnc12 | > 100000 nM | 65 nM | –
7 | 3130 nM | – | 13400 nM | 40 nM | – | – | – | – | inactive | Cc1cnc2c(NCCN3CCCCC3)nc3cc(-c4ccccc4)sc3n12 | 15000 nM | – | Activity [11]: inactive; Activity [12]: inactive; Activity [13]: inactive; Activity [14]: inactive; Activity [16]: inactive; Activity [17]: inactive; Activity [18]: inactive; Activity [19]: inactive
8 | 130 nM | – | 550 nM | 18 nM | – | – | – | – | inactive | CNc1nc2cc(-c3cccc(CCNC(N)=O)c3)sc2n2c(C)cnc12 | > 100000 nM | – | –
9 | 1090 nM | – | 1350 nM | 27 nM | – | – | – | – | inactive | CNc1nc2cc(-c3ccccc3)sc2n2c(C)cnc12 | > 100000 nM | – | Activity [11]: inactive; Activity [12]: inactive; Activity [13]: inactive; Activity [14]: inactive; solubility [20]: < 1 µg/mL; Activity [16]: inactive; Activity [17]: inactive; Activity [18]: inactive; Activity [19]: inactive
10 | 390 nM | 9.6 µM·h | 1810 nM | 13 nM | 0.07 nmol/mg/min | 60 min | 0.017 nmol/mg/min | 5.2 µM | – | CNc1nc2cc(-c3cccc(CCNCC(N)=O)c3)sc2n2c(C)cnc12 | > 100000 nM | 1370 nM | concentration at 2.5 h [21]: 14.3 µM; Activity [22]: inactive; Activity [23]: 49%; concentration at 5.5 h [24]: 2.1 µM
11 | – | 3.8 µM·h | 13300 nM | – | 0.016 nmol/mg/min | 30 min | < 0.01 nmol/mg/min | 1.4 µM | – | Cc1ccc2nc(NCCN)c3ncc(C)n3c2c1 [BMS-345541] | 100000 nM | 800 nM | concentration at 2.5 h [21]: 7.6 µM; Activity [22]: 70%; Activity [23]: 82%; concentration at 5.5 h [24]: 4.2 µM
